From US20190282498A1, “FREEZE-DRIED PROBIOTIC FOODSTUFFS” (IMAGILIN TECHNOLOGY, LLC, priority 2018, published 2019)

System: E. coli
Assay: Survival of E. coli with amoxicillin (comparison, data not shown)
Assay type: cell-based
Details: 500 μg/ml of amoxicillin
Method: In order to determine whether freeze-drying interfered with this antibiotic compatibility, Pediococcus probiotic freeze-dried products were exposed amoxicillin at 10 μg/ml, 50 μg/ml, 100 μg/ml, and 500 μg/ml, and incubated at 45° C. for […] to see if any survival of Pediococcus acidilactici NRRL B-50517. […] For comparison, E. coli had 0% survival at 500 μg/ml of amoxicillin (data not shown).

Compound: CC1(C)S[C@@H]2[C@H](NC(=O)[C@H](N)c3ccc(O)cc3)C(=O)N2[C@H]1C(=O)O [amoxicillin]
- survival of E. coli: 0%
